In patent publication US7846918B2, “Exemestane compounds, compositions and related methods of use” (Endece, LLC, priority 2005, dated 2010):

Legend:
Format in all cases: cell-based
MV 522 = assay: MTS cell growth inhibition assay, MV 522; settings: MV522, MV 522, Lung; for inhibition at 200 µM: read-out: Mean Percent Response at 200 μM (percent of cell growth inhibited); for IC50: mean of 2 independent trials
Description: (§1) Activity Of 6-Methyloxamethyl Exemestane Compounds Against Cancer Cell Lines. Cancer-derived cell lines were used for the following growth inhibition assay. The ability of the compound of Formula (B) above and the compound of Formula (D) above to inhibit cancer-derived cell growth was compared to exemestane as a control.
(§2) Cell viability is determined using the MTS assay. This calorimetric procedure measures conversion of the MTS reagent (a tetrazoleum salt) to formazan by living cells. Formazan production is quantified by spectrophotometric measurement at 490 nm and is proportional to viable cell number. Cells are cultured and treated. Following treatment, 100 μl of growth medium is removed and cells incubated with 20 μl CellTiter 96® AQueous One Solution Reagent (1.9 mg/ml in PBS, pH 6.0) for 1-3 hours at 37° C. Absorbance (OD) values are measured using a μQuant microplate reader at a single wavelength of 490 nm.
(§3) Additional assays were performed to evaluate the growth-inhibiting activity of the compound of Formula (B) above and the compound of Formula (D) compared to exemestane as a control.

MDA-MB-231 = assay: MTS cell growth inhibition assay, MDA-MB-231; settings: Homo sapiens, MDA-MB-231, Breast; for inhibition at 200 µM: read-out: Mean Percent Response at 200 μM (percent of cell growth inhibited); for IC50: mean of 2 independent trials
Description: as §1, §2, §3

Capan-1 = assay: MTS cell growth inhibition assay, Capan-1; settings: Homo sapiens, Capan-1, Pancreas; for inhibition at 200 µM: read-out: Mean Percent Response at 200 μM (percent of cell growth inhibited); for IC50: mean of 2 independent trials
Description: as §1, §2, §3

NIH: OVCAR-3 = assay: MTS cell growth inhibition assay, NIH: OVCAR-3; settings: Homo sapiens, NIH: OVCAR-3, Ovarian; for inhibition at 200 µM: read-out: Mean Percent Response at 200 μM (percent of cell growth inhibited); for IC50: mean of 2 independent trials
Description: as §1, §2, §3

[1] = test system: a variety of cancer cell lines; assay: Growth inhibition across the cancer cell line panel; settings: for activity against cancer cell lines, in words: text summary of Tables 1-3
Description: as §1, §2, §3

Capan-2 = assay: MTS cell growth inhibition assay, Capan-2; settings: Homo sapiens, Capan-2, Pancreas; for inhibition at 200 µM: read-out: Mean Percent Response at 200 μM (percent of cell growth inhibited); for IC50: mean of 2 independent trials
Description: as §1, §2, §3

MCF-7 = assay: MTS cell growth inhibition assay, MCF-7; settings: Homo sapiens, MCF7, MCF-7, Breast; for inhibition at 200 µM: read-out: Mean Percent Response at 200 μM (percent of cell growth inhibited); for IC50: mean of 2 independent trials
Description: as §1, §2, §3

SK-OV-3 = assay: MTS cell growth inhibition assay, SK-OV-3; settings: Homo sapiens, SK-OV-3, Ovarian; for inhibition at 200 µM: read-out: Mean Percent Response at 200 μM (percent of cell growth inhibited); for IC50: mean of 2 independent trials
Description: as §1, §2, §3

PC-3 = assay: MTS cell growth inhibition assay, PC-3; settings: Homo sapiens, PC-3, Prostrate; for inhibition at 200 µM: read-out: Mean Percent Response at 200 μM (percent of cell growth inhibited); for IC50: mean of 2 independent trials
Description: as §1, §2, §3

HT-29 = assay: MTS cell growth inhibition assay, HT-29; settings: Homo sapiens, HT-29, Colon; for inhibition at 200 µM: read-out: Mean Percent Response at 200 μM (percent of cell growth inhibited); for IC50: mean of 2 independent trials
Description: as §1, §2, §3

NIH: H23 = assay: MTS cell growth inhibition assay, NIH: H23; settings: NIH: H23, Lung; for inhibition at 200 µM: read-out: Mean Percent Response at 200 μM (percent of cell growth inhibited); for IC50: mean of 2 independent trials
Description: as §1, §2, §3

SMILES: COC[C@@H]1C[C@@H]2[C@H](CC[C@]3(C)C(=O)CC[C@@H]23)[C@@]2(C)C=CC(=O)C=C12 [Exemestane 6R]
- inhibition at 200 µM (MV 522): 96%
- IC50 (MV 522): 95 µM
- inhibition at 200 µM (MDA-MB-231): 95%
- IC50 (MDA-MB-231): 77 µM
- inhibition at 200 µM (Capan-1): 28%
- IC50 (Capan-1): 176 µM
- inhibition at 200 µM (NIH: OVCAR-3): 78%
- IC50 (NIH: OVCAR-3): 54 µM
- inhibition at 200 µM ([1]; see Table 2, 200 μM, read-out: inhibition against a variety of cancer cell lines): 95 to 98%
- inhibition at 200 µM (Capan-2): 46%
- IC50 (Capan-2): 104 µM
- inhibition at 200 µM (MCF-7): 56%
- IC50 (MCF-7): > 200 µM
- inhibition at 200 µM (SK-OV-3): 98%
- IC50 (SK-OV-3): 106 µM
- inhibition at 200 µM (PC-3): 78%
- IC50 (PC-3): 108 µM
- inhibition at 200 µM (HT-29): 80%
- IC50 (HT-29): 110 µM
- inhibition at 200 µM (NIH: H23): 65%
- IC50 (NIH: H23): 106 µM

SMILES: COC[C@H]1C[C@@H]2[C@H](CC[C@]3(C)C(=O)CC[C@@H]23)[C@@]2(C)C=CC(=O)C=C12 [Exemestane 6S]
- inhibition at 200 µM (MV 522): 19%
- IC50 (MV 522): > 200 µM
- inhibition at 200 µM (MDA-MB-231): 21%
- IC50 (MDA-MB-231): > 200 µM
- inhibition at 200 µM (Capan-1): 5%
- IC50 (Capan-1): > 200 µM
- inhibition at 200 µM (NIH: OVCAR-3): 6%
- IC50 (NIH: OVCAR-3): > 200 µM
- activity against cancer cell lines, in words [1]: works best against cell lines that are estrogen (−) and/or aromatase (+)
- inhibition at 200 µM (Capan-2): 15%
- IC50 (Capan-2): > 200 µM
- inhibition at 200 µM (MCF-7): 0%
- IC50 (MCF-7): > 200 µM
- inhibition at 200 µM (SK-OV-3): 0.3%
- IC50 (SK-OV-3): > 200 µM
- inhibition at 200 µM (PC-3): 0%
- IC50 (PC-3): > 200 µM
- inhibition at 200 µM (HT-29): 8%
- IC50 (HT-29): > 200 µM
- inhibition at 200 µM (NIH: H23): 12%
- IC50 (NIH: H23): > 200 µM

SMILES: C=C1C[C@@H]2[C@H](CC[C@]3(C)C(=O)CC[C@@H]23)[C@@]2(C)C=CC(=O)C=C12 [Exemestane, 6-methylenandrosta-1,4-diene-3,17-dione]
- inhibition at 200 µM (MV 522): 79%
- IC50 (MV 522): 103 µM
- inhibition at 200 µM (MDA-MB-231): 67%
- IC50 (MDA-MB-231): 64 µM
- inhibition at 200 µM (Capan-1): 74%
- IC50 (Capan-1): 98 µM
- inhibition at 200 µM (NIH: OVCAR-3): 88%
- IC50 (NIH: OVCAR-3): 73 µM
- activity against cancer cell lines, in words [1]: marginal activity
- inhibition at 200 µM (Capan-2): 56%
- IC50 (Capan-2): 94 µM
- inhibition at 200 µM (MCF-7): 68%
- IC50 (MCF-7): 96 µM
- inhibition at 200 µM (SK-OV-3): 85%
- IC50 (SK-OV-3): 78 µM
- inhibition at 200 µM (PC-3): 67%
- IC50 (PC-3): 105 µM
- inhibition at 200 µM (HT-29): 75%
- IC50 (HT-29): 103 µM
- inhibition at 200 µM (NIH: H23): 81%
- IC50 (NIH: H23): 50 µM
